Measurements: patent publication US8173145B2, “Formulation containing phosphate derivatives of electron transfer agents” (Vital Health Sciences Pty. Ltd., priority 2000, dated 2012)

Test: foam stability / surface active properties test
Assay type: physicochemical
Settings: 0.1 g in 10 ml distilled water, shaken; foam examined daily over four days
Procedure: 0.1 g of pure di-sodium mono-tocopheryl phosphate was dissolved in 10 ml of pure distilled water in a 50 ml cylindrical stoppered vessel.

Cc1c(C)c2c(c(C)c1OP(=O)([O-])[O-])CC[C@@](C)(CCC[C@H](C)CCC[C@H](C)CCCC(C)C)O2.[Na+].[Na+] [di-sodium mono-tocopheryl phosphate]
Foam stability: complete stability for one day
